Experimental data reported in patent publication US12139477B2, “Compounds, salts thereof and methods for treatment of diseases” (ACADIA PHARMACEUTICALS INC., priority 2017, dated 2024).

Assays:
hERG channel = target: T1, hERG channel (Homo sapiens, UniProt Q12809); experiment: hERG assay, whole cell recordings in CHO cells (AVIVA); type: cell-based; settings: CHO cells stably expressing hERG, pH 7.4
T1 construct: host or cells: CHO cells, stably transfected
Procedure: The most common mechanism for these adverse events is the inhibition of one or more cardiac potassium channels, in particular hERG. This current is important for cardiac myocyte repolarization and is a common target for drugs that prolong the QT interval. Test articles in this study were therefore characterized to determine their ability to inhibit the hERG channel. Ion channel activity was measured at AVIVA Biosciences Corporation (San Diego, CA), using a stably transfected Chinese Hamster Ovary (CHO) cell line expressing the hERG mRNA.
Cells: AVIVA's CHO cell line, which stably expresses hERG channels, was used for the study. Cells were cultured in DMEM/F12 containing 10% FBS, 1% penicillin/streptomycin and 500 μg/ml G418. Before testing, cells were harvested using Accumax (Innovative Cell Technologies).
Solutions: For electrophysiological recordings, the following solutions were used: External Solution: 2 mM CaCl2); 2 mM MgCl2; 4 mM KCl; 150 mM NaCl; 10 mM Glucose; 10 mM HEPES; 305-315 mOsm; pH 7.4 (adjusted with 5M NaOH); Internal Solution: 140 mM KCl; 10 mM MgCl2; 6 mM EGTA; 5 mM HEPES-Na; 5 mM ATP-Mg; 295-305 mOsm; pH 7.25 (adjusted with 1M KOH).
Electrophysiology: Whole cell recordings were performed using PX 7000A (Axon Instruments) with AVIVA's SealChip™ technology. Cells were voltage clamped at a holding potential of −80 mV. The hERG current was then activated by a depolarizing step to −50 mV for 300 ms. This first step at −50 mV was used as a baseline for measuring peak amplitude of the tail current. Next, a voltage step to +20 mV was applied for 5 s to activate the channels. Finally, a step back to −50 mV for 5 s removed activation and the deactivating tail current was recorded.
Test Article Handling and Dilutions: All test articles were prepared from 10 mM DMSO stock solutions provided by Sponsor. Solutions were mixed by sonication for 20 min, followed by vigorous vortexing. Prior to testing, compounds were diluted to test concentrations in glass vials using External Solution. Dilutions were prepared no longer than 20 min prior to use.
Electrophysiology Procedures: After achieving whole cell configuration, cells were monitored for 90 s to assess stability and then washed with External Solution for 66 s. The voltage protocol previously described was then applied to the cells every 12 s throughout the procedure. Only stable cells with recording parameters above threshold (see Quality Control section) were allowed to enter the drug addition procedure. External solution containing 0.1% DMSO (vehicle) was applied to the cells to establish a baseline. […] Test article solutions were added to cells in 4 separate additions. Cells were kept in test solution until effect of the test article reached steady state, to a maximum of 12 min. Next, 1 μM cisapride (positive control) was added. Finally, washout with External Solution was performed until the recovery current reached steady state.
Data Analysis: Data analysis was performed using DataXpress (Axon Instruments), Clampfit (Axon Instruments) and Origin (OriginLab Corporation) software.

5HT2A = 5HT2A (Homo sapiens, UniProt P28223); experiment: Receptor Selection and Amplification (R-SAT) functional assay; type: cell-based; design: expressed in transfected cells; host or cells: NIH3T3 cells, pSI mammalian expression vector; settings: NIH3T3 cells, Ki from IC50 by Cheng and Prussoff; for Ki: read-out: 5-HT2a (pKi) (R-SAT) (converted)
Chain of 5HT2A (P28223 whole entry): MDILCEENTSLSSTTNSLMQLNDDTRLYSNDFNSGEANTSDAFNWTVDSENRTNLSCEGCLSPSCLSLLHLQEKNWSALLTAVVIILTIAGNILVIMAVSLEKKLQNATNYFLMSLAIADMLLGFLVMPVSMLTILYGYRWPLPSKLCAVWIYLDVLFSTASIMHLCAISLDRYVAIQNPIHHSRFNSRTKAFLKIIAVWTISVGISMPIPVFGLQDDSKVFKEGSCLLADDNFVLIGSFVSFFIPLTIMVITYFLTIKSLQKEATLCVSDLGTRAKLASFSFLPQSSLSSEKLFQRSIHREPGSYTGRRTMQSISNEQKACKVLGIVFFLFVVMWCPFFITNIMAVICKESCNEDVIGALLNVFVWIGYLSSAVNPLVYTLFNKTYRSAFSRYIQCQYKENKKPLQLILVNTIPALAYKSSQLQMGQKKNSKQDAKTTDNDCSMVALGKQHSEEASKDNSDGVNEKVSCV
Text: Receptor Selection and Amplification (R-SAT) Assays. […] The IC50 determined in the RSAT assay was converted into a Ki value using the method of Cheng and Prussoff, Biochem Pharmacol., 1973 Dec. 1; 22(23):3099-108. pKi is the negative of the log(Ki).

T1 sequence (Q12809 whole entry): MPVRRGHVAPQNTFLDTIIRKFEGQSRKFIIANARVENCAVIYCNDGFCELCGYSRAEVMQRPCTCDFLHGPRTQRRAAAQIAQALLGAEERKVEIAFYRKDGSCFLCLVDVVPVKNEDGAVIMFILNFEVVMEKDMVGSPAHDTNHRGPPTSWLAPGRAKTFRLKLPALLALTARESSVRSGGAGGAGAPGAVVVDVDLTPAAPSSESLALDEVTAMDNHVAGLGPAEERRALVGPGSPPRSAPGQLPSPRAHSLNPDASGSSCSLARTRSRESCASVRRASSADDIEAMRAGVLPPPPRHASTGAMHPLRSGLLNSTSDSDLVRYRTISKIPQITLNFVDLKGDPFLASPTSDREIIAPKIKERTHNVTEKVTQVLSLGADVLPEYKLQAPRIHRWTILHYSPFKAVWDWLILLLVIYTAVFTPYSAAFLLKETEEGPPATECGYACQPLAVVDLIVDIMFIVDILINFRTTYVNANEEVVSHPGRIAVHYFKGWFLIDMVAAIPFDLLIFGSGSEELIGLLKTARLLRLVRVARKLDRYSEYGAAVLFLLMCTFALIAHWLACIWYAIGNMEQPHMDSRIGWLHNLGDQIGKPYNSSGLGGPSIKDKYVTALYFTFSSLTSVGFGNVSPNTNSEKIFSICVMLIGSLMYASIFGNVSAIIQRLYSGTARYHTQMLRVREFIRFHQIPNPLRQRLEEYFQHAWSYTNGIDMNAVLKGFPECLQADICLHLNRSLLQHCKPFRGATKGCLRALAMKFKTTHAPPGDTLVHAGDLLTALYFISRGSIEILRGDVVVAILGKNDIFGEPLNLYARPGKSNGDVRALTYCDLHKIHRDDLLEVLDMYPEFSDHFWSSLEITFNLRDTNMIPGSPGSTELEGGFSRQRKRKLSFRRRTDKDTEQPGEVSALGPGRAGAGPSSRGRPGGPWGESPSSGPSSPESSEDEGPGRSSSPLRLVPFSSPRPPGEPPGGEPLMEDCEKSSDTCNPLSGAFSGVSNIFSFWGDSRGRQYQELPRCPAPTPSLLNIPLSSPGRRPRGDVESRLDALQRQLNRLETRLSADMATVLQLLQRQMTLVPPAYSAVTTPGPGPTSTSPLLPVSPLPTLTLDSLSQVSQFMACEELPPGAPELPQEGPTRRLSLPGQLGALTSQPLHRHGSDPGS

## CC(C)COc1ccc(CNC(=O)N(Cc2ccc(F)cc2)C2CCN(C)CC2)c(F)c1 [Example 7, 3-{[2-fluoro-4-(2-methylpropoxy)phenyl]methyl}-1-[(4-fluorophenyl)methyl]-1-(1-methylpiperidin-4-yl)urea]
hERG channel
  inhibition at 1 µM: 87%
5HT2A
  Ki: 2 nM

## CC1(C)Cc2cc(CNC(=O)N(Cc3ccc(F)cc3F)C3CCNCC3)ccc2O1 [Example 158, 1-[(2,4-difluorophenyl)methyl]-3-[(2,2-dimethyl-2,3-dihydro-1-benzofuran-5-yl)methyl]-1-(piperidin-4-yl)urea; Trifluoroacetic Acid]
hERG channel
  inhibition at 1 µM: 8%
5HT2A
  Ki: 0.794 nM

## COc1cc(CNC(=O)N(Cc2ccc(F)cc2F)C2CCN(C)CC2)ccc1Cl [Example 98, 3-[(4-chloro-3-methoxyphenyl)methyl]-1-[(2,4-difluorophenyl)methyl]-1-(1-methylpiperidin-4-yl)urea; Trifluoroacetic Acid]
hERG channel
  inhibition at 1 µM: 62%
5HT2A
  Ki: 3.16 nM

## CN1CCC(N(Cc2ccc(F)cc2F)C(=O)NCc2ccc3c(c2)OCCOC3)CC1 [Example 52]
hERG channel
  inhibition at 1 µM: 8%
5HT2A
  Ki: 39.8 nM

## CCCOc1ccc(CNC(=O)N(Cc2ccc(F)cc2F)C2CCNCC2)cc1 [Example 76, 1-[(2,4-difluorophenyl)methyl]-1-(piperidin-4-yl)-3-[(4-propoxyphenyl)methyl]urea; Trifluoroacetic Acid]
hERG channel
  inhibition at 1 µM: 12%
5HT2A
  Ki: 3.98 nM

## CN1CCC(N(Cc2ccc(F)cc2F)C(=O)NCc2ccc3c(c2)C(C)(C)CO3)CC1 [Example 9, 1-[(2,4-difluorophenyl)methyl]-3-[(3,3-dimethyl-2,3-dihydro-1-benzofuran-5-yl)methyl]-1-(1-methylpiperidin-4-yl)urea]
hERG channel
  inhibition at 1 µM: 63%
5HT2A
  Ki: 7.94 nM

## CN1CCC(N(Cc2ccc(F)cc2F)C(=O)NCc2ccc(OC(CF)CF)cc2)CC1 [Example 153, 3-[(2,4-difluorophenyl)methyl]-1-({4-[(1,3-difluoropropan-2-yl)oxy]phenyl}methyl)-3-(1-methylpiperidin-4-yl)urea; Trifluoroacetic Acid]
hERG channel
  inhibition at 1 µM: 29%
5HT2A
  Ki: 1.58 nM

## Cc1nc2cc(CNC(=O)N(Cc3ccc(F)cc3F)C3CCN(C)CC3)ccc2o1 [Example 22]
hERG channel
  inhibition at 1 µM: 10%

## COc1ccc(CNC(=O)N(Cc2ccc(F)cc2F)C2CCN(C)CC2)cc1 [Example 125, 3-[(2,4-difluorophenyl)methyl]-1-[(4-methoxyphenyl)methyl]-3-(1-methylpiperidin-4-yl)urea]
hERG channel
  inhibition at 1 µM: 17%
5HT2A
  Ki: 3.98 nM

## Cc1noc2ccc(CNC(=O)N(Cc3ccc(F)cc3F)C3CCN(C)CC3)cc12 [Example 28]
hERG channel
  inhibition at 1 µM: 32%
5HT2A
  Ki: 3.98 nM

## CCCCC(CC)COc1ccc(CNC(=O)N(Cc2ccc(F)cc2F)C2CCN(C)CC2)cc1 (stereo not shown) [Example 147, 1-[(2,4-difluorophenyl)methyl]-3-({4-[(2-ethylhexyl)oxy]phenyl}methyl)-1-(1-methylpiperidin-4-yl)urea; Trifluoroacetic Acid]
5HT2A
  Ki: 3.16 nM

## COc1ccc(CN(C(=O)NCc2ccc(OCC(C)C)cc2)C2CCN(C)CC2)c(C(F)(F)F)c1 [Example 121, 3-{[4-methoxy-2-(trifluoromethyl)phenyl]methyl}-3-(1-methylpiperidin-4-yl)-1-{[4-(2-methylpropoxy)phenyl]methyl}urea]
5HT2A
  Ki: 126 nM

## CN1CCC(N(Cc2ccc(F)cc2F)C(=O)NCc2ccc3[nH]ncc3c2)CC1 [Example 93, 1-[(2,4-difluorophenyl)methyl]-3-[(1H-indazol-5-yl)methyl]-1-(1-methylpiperidin-4-yl)urea; Trifluoroacetic Acid]
5HT2A
  Ki: 39.8 nM

## COCCCOc1ccc(CNC(=O)N(Cc2ccc(F)cc2F)C2CCN(C)CC2)cc1 [Example 96, 1-[(2,4-difluorophenyl)methyl]-3-{[4-(3-methoxypropoxy)phenyl]methyl}-1-(1-methylpiperidin-4-yl)urea; Trifluoroacetic Acid]
5HT2A
  Ki: 10 nM

## CC(C)Oc1ccc(CNC(=O)N(Cc2ccc(Cl)cc2F)C2CCNCC2)cc1 [Example 133, 3-[(4-chloro-2-fluorophenyl)methyl]-3-(piperidin-4-yl)-1-{[4-(propan-2-yloxy)phenyl]methyl}urea; Trifluoroacetic Acid]
5HT2A
  Ki: 5.01 nM

## CN1CCC(N(Cc2ccc(F)cc2F)C(=O)NCc2ccc3cn[nH]c3c2)CC1 [Example 41]
hERG channel
  inhibition at 1 µM: 23%

## CC(C)Oc1ccc(CNC(=O)N(Cc2c(F)ccc(F)c2F)C2CCN(C)CC2)cc1 [Example 113, 1-(1-methylpiperidin-4-yl)-3-{[4-(propan-2-yloxy)phenyl]methyl}-1-[(2,3,6-trifluorophenyl)methyl]urea; Trifluoroacetic Acid]
5HT2A
  Ki: 126 nM

## CC(C)COc1ccc(CNC(=O)N(Cc2ccc(Cl)cc2F)C2CCNCC2)cc1 [Example 134, 3-[(4-chloro-2-fluorophenyl)methyl]-1-{[4-(2-methylpropoxy)phenyl]methyl}-3-(piperidin-4-yl)urea; Trifluoroacetic Acid]
5HT2A
  Ki: 3.98 nM

## CC(C)Oc1ccc(CNC(=O)N(Cc2ccc(Cl)cc2Cl)C2CCNCC2)cc1 [Example 108, 1-[(2,4-dichlorophenyl)methyl]-1-(piperidin-4-yl)-3-{[4-(propan-2-yloxy)phenyl]methyl}urea; Trifluoroacetic Acid]
5HT2A
  Ki: 79.4 nM

## Cc1c(F)ccc(CN(C(=O)NCc2ccc(OC(C)C)cc2)C2CCN(C)CC2)c1F [Example 114, 1-[(2,4-difluoro-3-methylphenyl)methyl]-1-(1-methylpiperidin-4-yl)-3-{[4-(propan-2-yloxy)phenyl]methyl}urea; Trifluoroacetic Acid]
5HT2A
  Ki: 6.31 nM

## COc1ccc(CNC(=O)N(Cc2ccc(F)cc2F)C2CCN(C)CC2)cc1F [Example 118, 1-[(2,4-difluorophenyl)methyl]-3-[(3-fluoro-4-methoxyphenyl)methyl]-1-(1-methylpiperidin-4-yl)urea]
5HT2A
  Ki: 10 nM

## COc1cc(F)c(F)cc1CN(C(=O)NCc1ccc(OC(C)C)cc1)C1CCN(C)CC1 [Example 138, 1-[(4,5-difluoro-2-methoxyphenyl)methyl]-1-(1-methylpiperidin-4-yl)-3-{[4-(propan-2-yloxy)phenyl]methyl}urea; Trifluoroacetic Acid]
hERG channel
  inhibition at 1 µM: 13%

## CN1CCC(N(Cc2ccc(F)cc2F)C(=O)NCc2ccc3c(c2)n(C)c(=O)n3C)CC1 [Example 40]
hERG channel
  inhibition at 1 µM: 9%

## [2H]C([2H])([2H])Oc1ccc(CNC(=O)N(Cc2ccc(F)cc2F)C2CCN(C)CC2)cc1 [Example 73, 1-[(2,4-difluorophenyl)methyl]-3-{[4-(^2H3)methoxyphenyl]methyl}-1-(1-methylpiperidin-4-yl)urea]
5HT2A
  Ki: 6.31 nM

## CCOc1ccc(CNC(=O)N(Cc2ccc(F)cc2F)C2CCNCC2)cc1.CCOc1ccc(CNC(=O)N(Cc2ccc(F)cc2F)C2CCNCC2)cc1.O=C(O)C(O)C(O)C(=O)O [Example 127, 3-[(2,4-difluorophenyl)methyl]-1-[(4-ethoxyphenyl)methyl]-3-(piperidin-4-yl)urea; Hemitartrate]
5HT2A
  5-HT2a (pKi) (R-SAT): 8.2

## CN1CCC(N(Cc2ccc(F)cc2F)C(=O)NCc2ccc3c(c2)ncn3C)CC1 [Example 55]
hERG channel
  inhibition at 1 µM: 10%

## CCCCOc1ccc(CNC(=O)N(Cc2ccc(F)cc2F)C2CCN(C)CC2)cc1 [Example 124, 3-[(4-butoxyphenyl)methyl]-1-[(2,4-difluorophenyl)methyl]-1-(1-methylpiperidin-4-yl)urea]
5HT2A
  Ki: 10 nM

## CN1CCC(N(Cc2ccc(F)cc2F)C(=O)NCc2ccc3ocnc3c2)CC1 [Example 30]
5HT2A
  Ki: 63.1 nM
